From ChEMBL document CHEMBL1148364, “Structure-based design, synthesis, and structure-activity relationship studies of novel non-nucleoside adenosine deaminase inhibitors” (J Med Chem, 2004)

System: not listed separately
Assay: AUC 0-8 hr value in rats at 10 mg/kg
Assay type: ADME, organism-based
Parameters: time < 8 hr, dose 10 mg/kg
Details: rat, plasma

**Q.** With `Cn1cc(CC[C@H](CO)n2cnc(C(N)=O)c2)c2cc(OCCCc3ccc(Cl)cc3)ccc21` as the molecule, how does the AUC(0-t) at 8 h read?
**A.** 260 ng·h/mL

Target: T1, Adenosine deaminase (Homo sapiens, UniProt P00813)
T1 sequence (P00813 whole entry): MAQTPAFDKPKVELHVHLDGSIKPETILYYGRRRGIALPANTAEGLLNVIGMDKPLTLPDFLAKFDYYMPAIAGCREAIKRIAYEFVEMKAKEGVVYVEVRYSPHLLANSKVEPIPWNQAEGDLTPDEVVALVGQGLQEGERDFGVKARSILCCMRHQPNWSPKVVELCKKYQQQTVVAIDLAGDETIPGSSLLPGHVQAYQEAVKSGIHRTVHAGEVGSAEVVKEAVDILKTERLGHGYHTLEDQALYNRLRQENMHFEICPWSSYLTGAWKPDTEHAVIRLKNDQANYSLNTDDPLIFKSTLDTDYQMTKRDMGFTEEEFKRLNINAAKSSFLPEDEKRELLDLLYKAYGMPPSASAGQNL
Details: not given

**Q.** For `NC(=O)c1cn([C@@H](CO)CCn2ccc3ccc(OCCCc4ccc(Cl)cc4)cc32)cn1`, which Ki is on record?
**A.** 0.013 µM

**Q.** For `CCCCCCOc1ccc2ccn(CC[C@H](CO)n3cnc(C(N)=O)c3)c2c1`, which Ki is on record?
**A.** 0.055 µM

**Q.** For `CCCCOc1ccc2ccn(CC[C@H](CO)n3cnc(C(N)=O)c3)c2c1`, which Ki is on record?
**A.** 0.24 µM

**Q.** For `NC(=O)c1cn([C@@H](CO)CCn2ccc3ccc(NC(=O)CCc4cccnc4)cc32)cn1`, which Ki is on record?
**A.** 0.017 µM

**Q.** With `NC(=O)c1cn([C@@H](CO)CCn2ccc3ccc(OCCCCc4ccccc4)cc32)cn1` as the molecule, how does the Ki read?
**A.** 0.012 µM

**Q.** With `CCCCCCOc1ccc2c(ccn2CC[C@H](CO)n2cnc(C(N)=O)c2)c1` as the molecule, how does the Ki read?
**A.** 6.2 µM

**Q.** For `Cn1cc(CC[C@H](CO)n2cnc(C(N)=O)c2)c2cc(OCCCc3ccc(Cl)cc3)ccc21`, which Ki is on record?
**A.** 0.0049 µM

**Q.** Which Ki does the source give for `CCCCCCOc1ccc2c(c1)c(CC[C@H](CO)n1cnc(C(N)=O)c1)cn2C` here?
**A.** 0.013 µM

**Q.** Which Ki does the source give for `Cc1ccc(CCC(=O)Nc2ccc3ccn(CC[C@H](CO)n4cnc(C(N)=O)c4)c3c2)cc1` here?
**A.** 0.038 µM

**Q.** Which Ki does the source give for `NC(=O)c1cn([C@@H](CO)CCn2ccc3cc(OCCCc4ccccc4)ccc32)cn1` here?
**A.** 1.9 µM

**Q.** Which Ki does the source give for `CC(=O)Nc1ccc2ccn(CC[C@H](CO)n3cnc(C(N)=O)c3)c2c1` here?
**A.** 1.3 µM

**Q.** Which Ki does the source give for `NC(=O)c1cn([C@@H](CO)CCn2ccc3ccc(OCCCc4ccccc4)cc32)cn1` here?
**A.** 0.017 µM

**Q.** Which Ki does the source give for `COc1ccc(CCC(=O)Nc2ccc3ccn(CC[C@H](CO)n4cnc(C(N)=O)c4)c3c2)cc1` here?
**A.** 0.057 µM

**Q.** Which Ki does the source give for `NC(=O)c1cn([C@@H](CO)CCn2ccc3ccc(NC(=O)CCCCCc4ccccc4)cc32)cn1` here?
**A.** 0.091 µM

**Q.** With `CCCCCC(=O)Nc1ccc2ccn(CC[C@H](CO)n3cnc(C(N)=O)c3)c2c1` as the molecule, how does the Ki read?
**A.** 0.024 µM

**Q.** With `Cc1ccc(CCCC(=O)Nc2ccc3ccn(CC[C@H](CO)n4cnc(C(N)=O)c4)c3c2)cc1` as the molecule, how does the Ki read?
**A.** 0.034 µM

System: not listed separately
Assay: Cmax value in rats at 10 mg/kg
Assay type: ADME, organism-based
Parameters: dose 10 mg/kg
Details: rat, in vivo

**Q.** Which Cmax does the source give for `Cn1cc(CC[C@H](CO)n2cnc(C(N)=O)c2)c2cc(OCCCc3ccc(Cl)cc3)ccc21` here?
**A.** 210 ng/mL

System: not listed separately
Assay: Oral bioavailability in rats at 10 mg/kg
Assay type: ADME, organism-based
Details: rat, in vivo

**Q.** With `Cn1cc(CC[C@H](CO)n2cnc(C(N)=O)c2)c2cc(OCCCc3ccc(Cl)cc3)ccc21` as the molecule, how does the bioavailability read?
**A.** 10%
